Test results taken from patent publication US6914045B2, “Glycopeptide antibiotics” (Wyeth Holdings Corporation, priority 2001, dated 2005).
Values after ≈ are worked out from the molar mass of the structure shown.

Key:
[1] = test system: Staphylococcus sp.; experiment: in vitro antibacterial evaluation, MIC by broth dilution; format: cell-based; settings: broth dilution, 18 hours at 35° C.; for MIC Staphylococcus haemolyticus (GC 4546): strain GC 4546
Outline: (§1)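 MIC = lowest antibiotic concentration preventing visible growth; inoculum 5×10^5 CFU/mL; drug range 64-0.06 μg/mL; Muller-Hinton II […]; NCCLS M7-A2 guidance.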

[2] = test system: Enterococcus sp.; experiment: as above; format: cell-based; settings: broth dilution, 18 hours at 35° C.
Outline: as §1

[3] = test system: Streptococcus sp.; experiment: as above; format: cell-based; settings: broth dilution, 18 hours at 35° C.
Outline: as §1

[4] = anatomic pathology (histopathology of heart and kidney) in mice; format: in vivo; settings: CD-1 mice, 20 mg/kg intravenously daily for 9 days, necropsy day 10, microscopic histopathology
Procedure: Samples of tissues from necropsied mice were formalin-fixed, paraffin-embedded, sectioned, stained with hematoxylin and eosin, and examined microscopically. Histopathologic findings were recorded. These findings were subjectively graded on a scale corresponding to slight, mild, moderate, marked and severe as compared to untreated controls.

[5] = test system: Escherichia coli; experiment: in vitro antibacterial evaluation, MIC by broth dilution; format: cell-based; settings: 18 hours at 35° C.
Outline: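 Broth dilution MIC per NCCLS M7-A2 in Mueller-Hinton II medium, inoculum 5×10^5 CFU/mL, antibiotic range 64-0.06 μg/mL. MIC taken as lowest concentration inhibiting growth.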

SMILES: CC(c1ccccc1)C1NC(=O)CNC(=O)C(CO)NC(=O)C(C(O)C2CN(Cc3ccc(C(C)(C)C)cc3)C(=N)N2C2OC(CO)C(O)C(O)C2O)NC(=O)C(C(O)C2CNC(=N)N2)NC(=O)C(Cc2ccc(OC3OC(CO)C(OC4OC(CO)C(O)C(O)C4O)C(O)C3O)cc2)NC1=O (stereo not drawn) [Example 60, Cyclo[glycyl-β-methylphenylalanyl-O-(4-O-hexopyranosylhexopyranosyl)tyrosl-(2-iminoimidazolidin-4-yl)seryl-3-[1-(4-tert-butylbenzyl)-3-hexopyranosyl-2-iminoimidazolidin-4-yl]-serylseryl]]
- MIC Staphylococcus aureus (ATCC 29213) ([1]; strain ATCC 29213): >128 µg/mL
- MIC Staphylococcus aureus (GC 1131) ([1]; strain GC 1131): >128 µg/mL
- MIC Staphylococcus aureus (GC 3051) ([1]; strain GC 3051): >128 µg/mL
- MIC Staphylococcus aureus (GC 3053) ([1]; strain GC 3053): >128 µg/mL
- MIC Staphylococcus aureus (GC 4541) ([1]; strain GC 4541): >128 µg/mL
- MIC Staphylococcus aureus (GC 4542) ([1]; strain GC 4542): >128 µg/mL
- MIC Staphylococcus aureus-SMITH (GC 4543) ([1]; strain GC 4543): >128 µg/mL
- MIC Staphylococcus aureus (GC 4544) ([1]; strain GC 4544): >128 µg/mL
- MIC Staphylococcus aureus (GC 4545) ([1]; strain GC 4545): >128 µg/mL
- MIC Staphylococcus haemolyticus (GC 4546) [1]: >128 µg/mL
- MIC Coagulase Negative Staphylococcus (GC 4547) ([1]; strain GC 4547): >128 µg/mL
- MIC Coagulase Negative Staphylococcus (GC 4548) ([1]; strain GC 4548): >128 µg/mL
- MIC Coagulase Negative Staphylococcus (GC 4549) ([1]; strain GC 4549): >128 µg/mL
- MIC Coagulase Negative Staphylococcus (GC 4551) ([1]; strain GC 4551): >128 µg/mL
- MIC Coagulase Negative Staphylococcus (GC 6257) ([1]; strain GC 6257): >128 µg/mL
- MIC Enterococcus avium (GC 4558) ([2]; Enterococcus avium (GC 4558)): 128 µg/mL (≈ 88.8 µM)
- MIC Enterococcus faecalis (ATCC 29212) ([2]; Enterococcus faecalis (ATCC 29212)): >128 µg/mL
- MIC Enterococcus faecalis (GC 4552) ([2]; Enterococcus faecalis (GC 4552)): >128 µg/mL
- MIC Enterococcus faecalis (GC 4553) ([2]; Enterococcus faecalis (GC 4553)): 128 µg/mL (≈ 88.8 µM)
- MIC Enterococcus faecalis (GC 4554) ([2]; Enterococcus faecalis (GC 4554)): >128 µg/mL
- MIC Enterococcus faecalis (GC 6189) ([2]; Enterococcus faecalis (GC 6189)): >128 µg/mL
- MIC Enterococcus faecium (GC 2243) ([2]; Enterococcus faecium (GC 2243)): >128 µg/mL
- MIC Enterococcus faecium (GC 4556) ([2]; Enterococcus faecium (GC 4556)): >128 µg/mL
- MIC Enterococcus faecium (GC 4557) ([2]; Enterococcus faecium (GC 4557)): 128 µg/mL (≈ 88.8 µM)
- MIC Enterococcus avium (GC 4558) [2]: 128 µg/mL (≈ 88.8 µM)
- MIC Enterococcus faecalis (ATCC 29212) [2]: >128 µg/mL
- MIC Enterococcus faecalis (GC 2242) [2]: >128 µg/mL
- MIC Enterococcus faecalis (GC 2691) [2]: >128 µg/mL
- MIC Enterococcus faecalis (GC 3059) [2]: >128 µg/mL
- MIC Enterococcus faecalis (GC 4552) [2]: >128 µg/mL
- MIC Enterococcus faecalis (GC 4553) [2]: 128 µg/mL (≈ 88.8 µM)
- MIC Enterococcus faecalis (GC 4554) [2]: >128 µg/mL
- MIC Enterococcus faecalis (GC 6189) [2]: >128 µg/mL
- MIC Enterococcus faecium (GC 2243) [2]: >128 µg/mL
- MIC Enterococcus faecium (GC 4556) [2]: >128 µg/mL
- MIC Enterococcus faecium (GC 4557) [2]: 128 µg/mL (≈ 88.8 µM)
- MIC Enterococcus faecalis (GC 2242) ([2]; strain GC 2242): >128 µg/mL
- MIC Enterococcus faecalis (GC 2691) ([2]; strain GC 2691): >128 µg/mL
- MIC Enterococcus faecalis (GC 3059) ([2]; strain GC 3059): >128 µg/mL
- MIC Streptococcus agalactiae (GC 4564) [3]: >128 µg/mL
- MIC Streptococcus pneumoniae (ATCC 6301) [3]: 128 µg/mL (≈ 88.8 µM)
- MIC Streptococcus pneumoniae (GC 1894) [3]: 64 µg/mL (≈ 44.4 µM)
- MIC Streptococcus pneumoniae (GC 4565) [3]: 128 µg/mL (≈ 88.8 µM)
- MIC Streptococcus pyogenes (GC 4563) [3]: >128 µg/mL
- MIC Streptococcus pneumoniae (ATCC 6301) ([3]; strain ATCC 6301): 128 µg/mL (≈ 88.8 µM)
- MIC Streptococcus pneumoniae (GC 1894) ([3]; strain GC 1894): 64 µg/mL (≈ 44.4 µM)
- MIC Streptococcus pyogenes (GC 4563) ([3]; strain GC 4563): >128 µg/mL
- MIC Streptococcus agalactiae (GC 4564) ([3]; strain GC 4564): >128 µg/mL
- MIC Streptococcus pneumoniae (GC 4565) ([3]; strain GC 4565): 128 µg/mL (≈ 88.8 µM)
- Anatomical Pathology (Day 10), Heart [4]: 0
- Anatomical Pathology (Day 10), Kidney [4]: 0
- MIC Escherichia coli (ATCC 25922) [5]: >128 µg/mL
- MIC Escherichia coli (GC 4559) [5]: >128 µg/mL
- MIC Escherichia coli (GC 4560) [5]: 16 µg/mL (≈ 11.1 µM)

SMILES: CN=C1N(C)CC(C(O)C2NC(=O)C(Cc3ccc(OC4OC(CO)C(OC5OC6COC7(OC6C(O)C5O)C5CC6CC(C5)CC7C6)C(O)C4O)cc3)NC(=O)C(C(C)c3ccccc3)NC(=O)CNC(=O)C(CO)NC(=O)C(C(O)C3CN(C)C(=NC)N3C3OC(CO)C(O)C(O)C3O)NC2=O)N1C (stereo not drawn) [Example 81, Cyclo[glycyl-β-methylphenylalanyl-O-[4-O-[4,6-O-(2-adamantylidene)hexopyranosyl]hexopyranosyl]tyrosyl-3-[1,3-dimethyl-2-(methylimino)imidazolidin-4-yl]seryl-3-[3-hexopyranosyl-1-methyl-2-(methylimino)imidazolidin-4-yl]serylseryl]]
- MIC Staphylococcus haemolyticus (GC 4546) [1]: >128 µg/mL
- MIC Enterococcus avium (GC 4558) [2]: 128 µg/mL (≈ 85.5 µM)
- MIC Enterococcus faecalis (ATCC 29212) [2]: >128 µg/mL
- MIC Enterococcus faecalis (GC 2242) [2]: >128 µg/mL
- MIC Enterococcus faecalis (GC 2691) [2]: >128 µg/mL
- MIC Enterococcus faecalis (GC 3059) [2]: >128 µg/mL
- MIC Enterococcus faecalis (GC 4552) [2]: >128 µg/mL
- MIC Enterococcus faecalis (GC 4553) [2]: 128 µg/mL (≈ 85.5 µM)
- MIC Enterococcus faecalis (GC 4554) [2]: >128 µg/mL
- MIC Enterococcus faecalis (GC 6189) [2]: >128 µg/mL
- MIC Enterococcus faecium (GC 2243) [2]: >128 µg/mL
- MIC Enterococcus faecium (GC 4556) [2]: >128 µg/mL
- MIC Enterococcus faecium (GC 4557) [2]: 128 µg/mL (≈ 85.5 µM)
- MIC Streptococcus agalactiae (GC 4564) [3]: 128 µg/mL (≈ 85.5 µM)
- MIC Streptococcus pneumoniae (ATCC 6301) [3]: >128 µg/mL
- MIC Streptococcus pneumoniae (GC 1894) [3]: 128 µg/mL (≈ 85.5 µM)
- MIC Streptococcus pneumoniae (GC 4565) [3]: >128 µg/mL
- MIC Streptococcus pyogenes (GC 4563) [3]: >128 µg/mL
- Anatomical Pathology (Day 10), Heart [4]: 0
- Anatomical Pathology (Day 10), Kidney [4]: 0
- MIC Escherichia coli (ATCC 25922) [5]: >128 µg/mL
- MIC Escherichia coli (GC 4559) [5]: >128 µg/mL
- MIC Escherichia coli (GC 4560) [5]: 128 µg/mL (≈ 85.5 µM)
